We go through one compound from patent US20100167335A1, “METHODS FOR DIAGNOSING AND TREATING ALLERGIES” (The Research Foundation of State University of New York, priority 2008, published 2010).

Each structure is given as a SMILES string.

Holding throughout (assay type): cell-based, human
Experiment [1] deals with PBMC from allergic asthmatics infected with C. pneumoniae. The experiment is described as follows: In vitro IgE release by PBMC cultures infected with C. pneumoniae MOI 0.1, day 10 (Example 3). Here is the method:
(§1) Peripheral blood (15 mL total) was obtained from patients and controls in ethylenediaminotetraacetic (EDTA) tubes. PBMC were isolated from whole blood on Ficoll-Paque (GE Healthcare, Sweden) and then washed in RPMI 1640 with 10% fetal bovine serum (FBS), and resuspended in complete RPMI 1640 (c-RPMI). C-RPMI contained RPMI-1640 Medium HEPES Modification supplemented by L-glutamine 5 mM and 10% FBS. Cells were counted and cell viability evaluated with trypan blue dye using a hemocytometer. PBMC (1.5×10^6/mL) were cultured in duplicate in 24 flat bottom well plates (1 ml/well) for up to 12 days in absolute humidification and 5% CO2. Cell viability at 0, 48 and 240 hours was >95%. Following a 2 h incubation to allow adherance PBMC cultures were infected or stimulated in the presence or absence of doxycycline. Doxycycline was reconstituted in a 1× sterile Dulbecco's Phosphate Buffered Saline (PBS).
(§2) PBMC were infected by adding purified EB at a multiplicity of infection (MOI) of 0.01-5 for 1 hour, followed by further incubation in the presence or absence of doxycycline, at 0.01, 0.1, 1.0 μg/mL, for 2 and 10 days p.i. at 37.0° C. in complete medium in a humidified 5% CO2 atmosphere. The time points 2 d (for cytokines) and 10 d p.i. […] Adherent cells were stained with monoclonal genus specific antibodies to confirm and quantify infection with C. pneumoniae at 72 h post infection. Identical volumes of inactivated C. pneumoniae were added in some experiments. C. pneumoniae was inactivated by incubation in a 56° C. water bath for 30 minutes. […]
Doxycycline at a concentration of 1 μg/ml was added to PBMC cultures after one hour incubation with C. pneumoniae MOI of 0.1. […] In FIG. 5, the data is expressed as percent control (PBMC day 10 p.i.); the mean change was 48% decrease; p=0.043. In FIG. 6, the data is expressed as mean IgE±SD (ng/ml) in cultures with the following conditions: uninfected cells (Naïve); Cpn MOI=0.1; Cpn MOI=0.1 and doxycycline […]; Cpn MOI of 1.0 and heat inactivated Cpn.

Experiment [2] concerns IL-4 in PBMC culture from serum IgE+ allergic asthmatics. Briefly: IL-4 release by PBMC cultures infected with C. pneumoniae MOI 0.1 (Example 3). As to the method:
as §1, §2
(§3) In order to characterize the contribution of different T lymphocyte subpopulations to in vitro IgE production, cytokine concentration in infected and uninfected PBMC cultures were analyzed and determined. […]
(§4) To determine the effect of doxycycline on cytokine release by PBMC, doxycycline (0.01-1.0 ng/ml) was added to culture following infection with C. pneumoniae (MOI=0.1). […] In FIG. 8, the data is expressed as a percent control (PBMC day 10 p.i.), 100% is the mean highest response to Cpn; *P<0.05 for doxycycline treated cultures versus no doxycycline.

For experiment [3], the system named is IFN-γ in PBMC culture from serum IgE+ allergic asthmatics. The experiment is described as follows: IFN-γ release by PBMC cultures infected with C. pneumoniae MOI 0.1 (Example 3). Conditions: for IFN-γ level, mean % change: p=NS. As to the method:
as §1, §2, §3, §4

`C[C@H]1c2cccc(O)c2C(=O)C2=C(O)[C@]3(O)C(=O)C(C(N)=O)=C(O)[C@@H](N(C)C)[C@@H]3[C@@H](O)[C@@H]21` [doxycycline]: the “mean change of IgE response, decrease (FIG. 5, percent control)” value in experiment [1] (FIG. 5, individual subjects n=5, PBMC day 10 p.i., Cpn MOI=0.1, p=0.043) came out at 48%. In experiment [1] (doxycycline 1 μg/ml added after 1 h incubation with C. pneumoniae MOI 0.1, day 10, p=0.043), the “suppression of IgE responses (average)” value is 42%. The “IgE in PBMC culture” value in experiment [1] (doxycycline 1 μg/ml, C. pneumoniae MOI 0.1, day 10, versus 5.9±6.0 ng/ml without doxycycline) is 3.4 ± 3.9 ng/mL. In experiment [2] (doxycycline 1 ng/ml, day 2 (48 h), p=0.018), the “IL-4 level, mean % decrease” value was determined as 30±14%. The “IL-4 level, mean % change” value is reported as −45±33% in experiment [2] (doxycycline 0.01 μg/ml, p=0.018) and −60±13% in experiment [2] (doxycycline 0.1 μg/ml, p<0.05). In experiment [3] (doxycycline 1 ng/ml, day 2 (48 h), p=0.043), the “IFN-γ level, mean % decrease” value amounted to 43±27%. In addition, the “IFN-γ level, mean % change” value in experiment [3] (doxycycline 0.01 μg/ml) was 5%±11; in experiment [3] (doxycycline 0.1 μg/ml), −1%±18.
